Data from US11198710B2, “Transgenic plant having herbicide resistance” (priority 2016, dated 2021).

Assays:
TaQ8GTC0 protein = assay: Glutathione conjugation activity of the TaQ8GTC0 protein to VLCFAE-inhibiting herbicides (HPLC); type: biochemical, wheat (Triticum aestivum)
Protocol: All the VLCFAE-inhibiting herbicides used in this example were added to the reaction mixture as acetone solutions. Conjugation reactions to the VLCFAE-inhibiting herbicides were performed in a reaction mixture (total amount: 200 μl) containing 50 μl of 100 mM potassium phosphate buffer (pH 6.8), 10 μl of 1 mM VLCFAE-inhibiting herbicide, 20 μl of 10 mM reduced glutathione (pH 7.0), 6 μl of the TaQ8GTC0 protein (378 ng in total, PBS buffer solution) and 114 μl of PBS buffer, the reaction was conducted at 30° C. for 15 minutes, the reaction product was filtered through a […], and 50 μl of the filtered solution was injected into HPLC. HPLC analysis conditions were as described below.
Apparatus: Agilent 1100 series
Column: CAPCELL PAK C18 AQ 4.6 mm (i.d.)×250 mm (SHISEIDO)
Mobile phase: acetonitrile/distilled water=5/95 (hold for 5 min)→(4 min)→40/60 (hold for 4 min)→(4 min)→90/10 (hold for 8 min)→(1 min)→5/95 (hold for 4 min) (each solvent containing 0.5% acetic acid)
When the activity of glutathione conjugation to VLCFAE-inhibiting herbicides was analyzed, the amount of glutathione conjugates (GS conjugates) produced was determined based on the amount of VLCFAE-inhibiting herbicides decreased in the reaction solution.
In Example 1, the conjugation activity to cafenstrole was determined via quantification of the compound released by the glutathione conjugation of this herbicide. In addition, peaks of GS conjugate of other herbicides (i.e., metolachlor, alachlor, flufenacet, mefenacet, phentolazamide, indanofan, anilofos, and piperophos) were unknown. When analyzing the glutathione conjugation activities to these herbicides, accordingly, glutathione conjugation reactions were performed to produce GS conjugate in the modified conditions (i.e., more amount of enzyme was added or the conjugation reaction was conducted for longer time) in the beginning to produce glutathione conjugates (GS conjugates), and the peaks were identified with LC/MS.

ZmB8A3K0 = assay: Pyroxasulfone metabolizing activity based on the growth of cultured rice cells in medium; type: cell-based, maize; conditions: cultured rice cells with ZmB8A3K0 gene; N6D medium, 100 μM (10^−4M) pyroxasulfone, 2 weeks
Protocol: (§1) The 2 lineages of cultured rice cells comprising the maize GST genes introduced thus prepared and the KLB-279 cultured transgenic rice cells (the control cells) were seeded on N6D medium, and pyroxasulfone resistance was inspected based on the growth of cultured rice cells 2 weeks later. Pyroxasulfone was subjected to the test as an acetone solution, the final acetone concentration to be added to the medium was 1%, and the final drug concentration was 10^−4 M.

ZmQ9FQD1 = assay: as above; type: cell-based, maize; conditions: cultured rice cells with ZmQ9FQD1 gene; N6D medium, 100 μM (10^−4M) pyroxasulfone, 2 weeks
Protocol: as §1

[1] = tested on: wild-type rapeseed plants (variety: Westar); assay: Rapeseed sensitivity test 2 (agar medium), wild type; type: in vivo, Brassica napus; conditions: 0.1 μM pyroxasulfone, 22° C., 2 weeks
Text: In order to investigate the extent of pyroxasulfone resistance of the transgenic rapeseed plants comprising the […] gene introduced therein compared to wild-type plants, the growth of rapeseed was examined in an agar medium containing pyroxasulfone. Wild-type rapeseed plants (variety: Westar) and transgenic rapeseed plants comprising the TaQ8GTC0 gene introduced therein were subjected to the growth inhibitory test in an agar medium, so as to examine the resistance thereof to pyroxasulfone.
The medium (1 liter) used in the test was composed of 1× Murashige-Skoog (MS) media (a bag), thiamin hydrochloride (3 μg/ml), nicotinic acid (5 μg/ml), pyridoxin hydrochloride (0.5 μg/ml), and 1% (w/v) sucrose. The composition was added to a 1-liter beaker, a pH was adjusted to 5.7, and the volume of the composition was adjusted to 1 liter, followed by the addition of 8 g (0.8%) of agar. Thereafter, the composition was autoclaved, the temperature was cooled to room temperature, and pyroxasulfone (acetone solution) at a given concentration was added. […]
The sensitivity of rapeseed was examined in agar media comprising pyroxasulfone (0.1 μM, 1 μM, 10 μM, and 100 μM). […] Values in the table in FIGS. 41 and 42 are expressed as the mean±standard deviation (n=4 to 5). Values in FIG. 43 are expressed as the means (n=4 to 5).

## Cn1nc(C(F)(F)F)c(CS(=O)(=O)C2=NOC(C)(C)C2)c1OC(F)F [Pyroxasulfone, 3-[5-(difluoromethoxy)-1-methyl-3-(trifluoromethyl)pyrazol-4-ylmethylsulfonyl]-4,5-dihydro-5,5-dimethyl-1,2-oxazole]
TaQ8GTC0 protein; 378 ng TaQ8GTC0 protein, 10 μl of 1 mM herbicide in 200 μl, 30° C., 15 minutes, mean ± standard deviation
  Enzyme activity (glutathione conjugation): 11.7 ± 3.7 μmol/mg protein/15 min
TaQ8GTC0 protein; out of 10 nmol pyroxasulfone added to the reaction mixture
  GS conjugate of pyroxasulfone (M-15) produced: 4.81 nmol
ZmB8A3K0
  pyroxasulfone metabolizing activity (growth of cultured rice cells): no pyroxasulfone metabolizing activity
ZmQ9FQD1
  pyroxasulfone metabolizing activity (growth of cultured rice cells): no pyroxasulfone metabolizing activity
[1]
  inhibition ratio on foliage leaf development: 8.4±1.4%
  inhibition ratio on plant height: 8.9±2.8%
